Measurements from US11274132B2, “Combined preparations of PKM2 modulators and HMGB1” (Ruprecht-Karls-Universität Heidelberg, priority 2015, dated 2022).

Experiments:
HT29 cells = experiment: Production of labeled CO2 (glucose and glutamine oxidation); assay type: cell-based, human; conditions: HT29 cells after HMGB1 treatment
PKM2 [1] = molecular target: T1, PKM2 (Homo sapiens, UniProt P14618); experiment: Immunoprecipitation with 125I-labeled HMGB1 (PKM2 pull-down); assay type: binding; parameters: endogenous in cells; conditions: 125I-labeled HMGB1
Protocol: FIG. 6: Co-administration of HMGB1 and an activator (A left and right) or an inhibitor (B) of PMK2 has a synergistic cytotoxic effect, as determined in the crystal violet cytotoxicity assay (assays were performed in duplicate, * indicates p<0.05). (C) Immunoprecipitation with I125-labeled HMGB1 (PKM2 pull-down). HMGB1, like phosphotyrosine-peptides, binds close to the allosteric center of PKM2, leading to a competition in binding.

glucose-6-phosphate = experiment: Glucose-6-phosphate assay kit; assay type: cell-based, human; conditions: HMGB1-treated cells
Protocol: Glucose-6-phosphate levels in cells were measured using the Glucose-6-phosphate assay kit (Sigma) according to the manufacturer's protocol.

[2] = test system: cytochrome c oxidase (COX); experiment: Respiratory chain complex activities in mitochondrial fractions; assay type: cell-based, human
Protocol: (§1) Enzymatic activities of respiratory chain complexes, glycolytic proteins and malic enzyme were determined in subcellular fractions as previously described (Kaminski, M. M. et al. T cell activation is driven by an ADP-dependent glucokinase linking enhanced glycolysis with mitochondrial reactive oxygen species generation. Cell reports 2, 1300-1315 (2012).Bruncko, M. et al. Naphthamidine urokinase plasminogen activator inhibitors with improved pharmacokinetic properties. Bioorganic & medicinal chemistry letters 15, 93-98, (2005)) using a computer-tuneable spectrophotometer (Spectramax Plus Microplate Reader, Molecular Devices; Sunny Vale, Calif., USA) operating in the dual wavelength mode; samples were analyzed in temperature-controlled 96-well plates in a final volume of 300 μl. Activity of ME1 was recorded in presence of increasing amounts of malic acid (0.02, 0.05, 0.1, 0.2, 0.5, 1, 2.5 mM). Vmax and Km were calculated using a Hanes-Woolf plot. In the presence of high substrate levels the Km for malic acid was similar in all three tested cell lines (SW480: 0.32 mM, HCT116: 0.30 mM, HT29: 0.31 mM). Vmax (mU/mg protein) values were 3.38 (SW480, 0.5-5.0 mM malic acid), 5.77 (HCT116, 0.5-5.0 mM malic acid) and 3.68 (HT29, 0.5-5.0 mM malic acid) and 1.68 (SW480, 0.02-0.2 mM malic acid), 3.24 (HCT116, 0.02-0.2 mM malic acid) and 1.89 (HT29, 0.02-0.2 mM malic acid). Two isoforms of ME1, mitochondrial (NAD(P)+dependent) ME3 and mitochondrial (NAD+dependent) ME2, had very low or no detectable activities (data not shown).
(§2) Cells were lysed in lysis buffer P (20 mM Tris-HCl (pH 7.4), 137 mM NaCl, 10% (v/v) glycerine, 1% Triton X-100, 2 mM EDTA, 100 mM phenylmethylsulfonyl fluoride and protease inhibitors (Complete mini from Roche). Lysates were centrifuged at 14,000×g (10 min) at 4° C. Total protein was measured by the Bradford (Bio-Rad) method. Soluble protein was resolved by SDS-PAGE, blotted onto nitrocellulose and incubated with one of the following antibodies: mouse monoclonal anti-β-actin (1:3,000, Sigma-Aldrich), rabbit anti PK M2 (1:1,000, Cell Signaling), rabbit anti-malic enzyme 1 (1:1,000, abcam). Appropriate secondary antibodies (1:3,000, horse-radish peroxidase-conjugated) were from Bio-Rad. Visualization was done by enhanced chemiluminescence technique (GE-Healthcare). Mitochondrial fractions were extracted using the ApoAlert Cell Fractionation Kit (Clontech) as described earlier (Gdynia, G. et al. BLOC1S2 interacts with the HIPPI protein and sensitizes NCH89 glioblastoma cells to apoptosis. Apoptosis: an international journal on programmed cell death 13, 437-447, (2008)).

complex II and III = experiment: as above; assay type: cell-based, human; conditions: HMGB1 80 nM, 24 h
Protocol: as §1, §2

complex I to III = experiment: as above; assay type: cell-based, human; conditions: colorectal cancer cell lines; HMGB1 80 nM, 24 h
Protocol: as §1, §2

ATP synthase = experiment: as above; assay type: cell-based, human; conditions: colorectal cancer cell lines; HMGB1 80 nM, 24 h
Protocol: as §1, §2

[3] = test system: mitochondrial oxygen consumption; experiment: Mitochondrial (cyanide sensitive) respiration, Oroboros oxygraph; assay type: cell-based, human
Protocol: Lactate derived from the metabolism of ^13C6-D-glucose or ^13C5-glutamine was determined by comparing the CH3 group intensities of labeled and non-labeled lactate in NMR. Mitochondrial respiration was measured using an Oroboros 1 oxygraph system. Glycolysis was measured by monitoring the conversion of 5-^3H-Glucose to ^3H2O. Incorporation of ^14C into RNA ribose from U-^14C-labelled glucose was taken as glucose utilization in the pentose phosphate shunt. Enzymatic activities were determined in subcellular fractions as previously described^24.

PKM2 [4] = molecular target: T1, PKM2; experiment: Ultrafiltration of the PK M2-HMGB1 complex; assay type: binding; conditions: 2 μM human PK M2 and 2 μM human HMGB1
Protocol: Ultrafiltration of the PK M2-HMGB1 complex: equimolar amounts of HMGB1 and PKM2 were mixed in a final volume of 300 μl and filtrated (14000 g, 4° C.) to a final volume of 15 μl in an Amicon Ultra 0.5 ml 30k device (Merck-Millipore, Darmstadt, Germany). The retentate was adjusted to the original volume after centrifugation. Then filtrate and retentate were analyzed by Western Blot. For controls HMGB1 and PKM2 were also analyzed alone. Pure HMGB1 (2 μM) suited as a negative control.

ATP = experiment: Cellular ATP after HMGB1 treatment; assay type: cell-based, human

T1 sequence (P14618 whole entry): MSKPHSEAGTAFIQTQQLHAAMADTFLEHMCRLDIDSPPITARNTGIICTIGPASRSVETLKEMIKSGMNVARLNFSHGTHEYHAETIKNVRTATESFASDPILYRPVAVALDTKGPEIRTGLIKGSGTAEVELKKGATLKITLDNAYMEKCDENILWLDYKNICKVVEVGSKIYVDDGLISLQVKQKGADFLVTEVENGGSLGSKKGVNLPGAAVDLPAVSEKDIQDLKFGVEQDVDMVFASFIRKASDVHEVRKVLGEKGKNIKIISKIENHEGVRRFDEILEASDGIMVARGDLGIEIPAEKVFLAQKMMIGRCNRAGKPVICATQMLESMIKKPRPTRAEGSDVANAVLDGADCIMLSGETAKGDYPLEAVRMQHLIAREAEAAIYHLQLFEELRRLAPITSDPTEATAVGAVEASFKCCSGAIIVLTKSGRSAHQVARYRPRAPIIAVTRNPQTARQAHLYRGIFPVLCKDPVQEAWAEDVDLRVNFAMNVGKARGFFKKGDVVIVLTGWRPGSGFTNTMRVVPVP

HMGB1: recombinant human HMGB1 protein (Sigma-Aldrich); High Mobility Group Box 1 polypeptide, human, SEQ ID NO: 4
decrease of glucose oxidation (HT29 cells): ~50% | increase of glutamine oxidation (HT29 cells): ~35% | binding to PKM2 in vivo (immunoprecipitating PKM2) (PKM2 [1]): specific binding | glucose-6-phosphate level (glucose-6-phosphate): strong increase | COX activity ([2]; colorectal cancer cell lines, HMGB1 80 nM, 24 h): significantly lower activity levels | COX activity ([2]; primary tumor tissue slices, HMGB1 160 nM, 72 h): potent inhibition | coupled complex II and III activity (complex II and III; HCT116): maintained or even upregulated | coupled complex II and III activity (complex II and III; HT29): maintained or even upregulated | coupled complex II and III activity (complex II and III; SW480): decreased | electron flow from complex I to III (complex I to III): unchanged | ATP synthase activity (ATP synthase): not diminished | inhibition of mitochondrial oxygen consumption ([3]; HCT116 cells, HMGB1 80 nM, 24 h): pronounced | mitochondrial respiration ([3]; HT29 cells, HMGB1 80 nM, 24 h): only slightly reduced | inhibition of mitochondrial oxygen consumption ([3]; SW480 cells, HMGB1 80 nM, 24 h): pronounced | mitochondrial oxygen consumption ([3]; colorectal cancer tissue slices, HMGB1 160 nM, 72 h): strongly decreased | physical interaction with PK M2 in vitro (PKM2 [4]): physically interacted | ATP (ATP; HCT116 cells): substantial decrease | ATP (ATP; SW480 cells): substantial decrease
